{
  "source": "ChEMBL document CHEMBL5236590",
  "about": "“Discovery of Novel N-(5-(Pyridin-3-yl)-1H-indazol-3-yl)benzamide Derivatives as Potent Cyclin-Dependent Kinase 7 Inhibitors for the Treatment of Autosomal Dominant Polycystic Kidney Disease” (J Med Chem, 2022)",
  "key": {"[1]": {"assay": "Toxicity in wild type mouse assessed as body weight at 5 mg/kg", "assay_type": "organism-based", "conditions": "in vivo"}, "Mus musculus [2]": {"tested_on": "Mus musculus", "assay": "Reduction in cyst size in kidney-specific Pkd1 knockout ADPKD mouse model assessed as renal cystic index at 5 mg/kg by HE staining analysis", "assay_type": "functional, organism-based"}, "[3]": {"target": "Interleukin-1 receptor-associated kinase 4 (Homo sapiens) (UniProt Q9NWZ3)", "assay": "Inhibition of human partial length wild type IRAK4 expressed in mammalian system at 1 uM by KINOMEscan analysis relative to control"}, "Homo sapiens [4]": {"species": "Homo sapiens", "assay": "Inhibition of human partial length wild type PRAK (M1/R415) expressed in mammalian system at 1 uM by KINOMEscan analysis relative to control"}, "[5]": {"target": "Tyrosine-protein kinase receptor TYRO3 (Homo sapiens) (UniProt Q06418)", "sequence (Q06418 whole entry)": "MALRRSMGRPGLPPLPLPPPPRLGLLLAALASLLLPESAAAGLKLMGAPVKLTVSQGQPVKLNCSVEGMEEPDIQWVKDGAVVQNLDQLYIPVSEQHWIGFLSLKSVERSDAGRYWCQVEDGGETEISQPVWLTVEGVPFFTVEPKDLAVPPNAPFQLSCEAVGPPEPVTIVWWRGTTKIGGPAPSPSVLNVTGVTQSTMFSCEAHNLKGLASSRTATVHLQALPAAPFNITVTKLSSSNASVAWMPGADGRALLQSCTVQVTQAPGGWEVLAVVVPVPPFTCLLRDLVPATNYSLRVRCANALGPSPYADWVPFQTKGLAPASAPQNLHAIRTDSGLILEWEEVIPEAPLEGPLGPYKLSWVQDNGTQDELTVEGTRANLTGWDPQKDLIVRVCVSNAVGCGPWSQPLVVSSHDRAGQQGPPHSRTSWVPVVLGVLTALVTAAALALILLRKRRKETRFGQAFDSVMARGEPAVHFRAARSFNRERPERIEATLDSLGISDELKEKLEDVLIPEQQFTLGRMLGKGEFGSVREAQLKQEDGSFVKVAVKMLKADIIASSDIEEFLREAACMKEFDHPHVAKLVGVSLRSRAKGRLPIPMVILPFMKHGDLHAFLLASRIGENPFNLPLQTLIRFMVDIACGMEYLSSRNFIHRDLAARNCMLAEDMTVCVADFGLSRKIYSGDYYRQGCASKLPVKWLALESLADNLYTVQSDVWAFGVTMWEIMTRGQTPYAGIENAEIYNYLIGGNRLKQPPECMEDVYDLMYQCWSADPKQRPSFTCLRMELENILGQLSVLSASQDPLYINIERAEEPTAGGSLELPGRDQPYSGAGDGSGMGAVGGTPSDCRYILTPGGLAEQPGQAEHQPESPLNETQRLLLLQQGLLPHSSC", "assay": "Inhibition of RSE (unknown origin) at 1 uM relative to control"}, "[6]": {"target": "Ephrin type-A receptor 5 (Homo sapiens) (UniProt P54756)", "assay": "Inhibition of human partial length wild type EphA5 (T627/V930) expressed in bacterial system at 1 uM by KINOMEscan analysis relative to control"}, "[7]": {"target": "MAP kinase-activated protein kinase 5 (Homo sapiens) (UniProt Q8IW41)", "assay": "Inhibition of human partial length wild type PRAK (M1/D322) expressed in mammalian system at 1 uM by KINOMEscan analysis relative to control"}, "[8]": {"assay": "Toxicity in wild type mouse assessed as kidney size at 5 mg/kg", "assay_type": "organism-based", "conditions": "in vivo"}, "[9]": {"target": "Mitogen-activated protein kinase kinase kinase 7 (Homo sapiens) (UniProt O43318)", "assay": "Inhibition of human partial length TAK1 (M1/Q303) expressed in mammalian system at 1 uM by KINOMEscan analysis relative to control"}, "[10]": {"target": "PI3-kinase p110-alpha/p85-alpha (Homo sapiens) (UniProt P27986+P42336)", "assay": "Inhibition of PI3 kinase p110alpha/p85alpha (unknown origin) at 1 uM relative to control", "assay_type": "protein-complex assay"}, "[11]": {"assay": "Plasma protein binding in mouse measured after 4 hrs by LC-MS/MS analysis", "assay_type": "ADME, cell-free", "conditions": "read-out: PPB"}, "Mus musculus [12]": {"tested_on": "Mus musculus", "assay": "Reduction in AMPD3 protein expression in kidney-specific Pkd1 knockout ADPKD mouse model assessed as protein expression in cyst-lining epithelial cell at 5 mg/kg by Western blot analysis", "assay_type": "functional, organism-based"}, "[13]": {"assay": "Observed AUC (infinitive) in ICR mouse at 5 mg/kg, sc single dose measured upto 24 hrs", "assay_type": "ADME, organism-based", "parameters": "time < 24 hrs, dose 5 mg/kg, route sc", "conditions": "in vivo"}, "[14]": {"target": "Casein kinase II subunit alpha' (Homo sapiens) (UniProt P19784)", "sequence (P19784 whole entry, looked up)": "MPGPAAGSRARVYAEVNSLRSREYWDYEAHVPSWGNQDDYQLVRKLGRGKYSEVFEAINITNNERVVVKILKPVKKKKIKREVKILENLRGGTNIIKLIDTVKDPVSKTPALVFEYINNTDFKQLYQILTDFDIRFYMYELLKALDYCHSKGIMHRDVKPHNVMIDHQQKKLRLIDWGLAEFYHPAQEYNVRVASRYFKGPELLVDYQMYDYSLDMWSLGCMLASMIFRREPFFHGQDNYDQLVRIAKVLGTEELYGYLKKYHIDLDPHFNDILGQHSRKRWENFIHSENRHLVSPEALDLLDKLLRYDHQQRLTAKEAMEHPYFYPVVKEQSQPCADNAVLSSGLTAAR", "assay": "Inhibition of human full length wild type CK2alpha2 expressed in mammalian system at 1 uM by KINOMEscan analysis relative to control"}, "[15]": {"tested_on": "Epidermal growth factor receptor (Homo sapiens), P00533 [UNDEFINED MUTATION]", "assay": "Inhibition of human partial length EGFR (R669/V1011) G719C mutant expressed in bacterial system at 1 uM by KINOMEscan analysis relative to control"}, "[16]": {"target": "Cyclin-dependent kinase 12 (Homo sapiens, UniProt Q9NYV4)", "assay": "Inhibition of CDK12 (unknown origin)"}, "Homo sapiens [17]": {"species": "Homo sapiens", "assay": "Inhibition of P13 Kinase p120gamma (unknown origin) at 1 uM relative to control"}, "[18]": {"target": "Tyrosine-protein kinase Lyn (Homo sapiens) (UniProt P07948)", "assay": "Inhibition of human partial length wild type Lyn (C219/Q511) expressed in bacterial system at 1 uM by KINOMEscan analysis relative to control"}, "[19]": {"assay": "Cmax in ICR mouse at 5 mg/kg, sc single dose measured upto 24 hrs", "assay_type": "ADME, organism-based", "parameters": "time < 24 hrs, dose 5 mg/kg, route sc", "conditions": "in vivo"}, "[20]": {"target": "Cyclin-dependent kinase 6 (Homo sapiens, UniProt Q00534)", "assay": "Inhibition of CDK6 (unknown origin)"}, "[21]": {"target": "Cyclin-dependent kinase 7 (Homo sapiens, UniProt P50613)", "sequence (P50613 whole entry)": "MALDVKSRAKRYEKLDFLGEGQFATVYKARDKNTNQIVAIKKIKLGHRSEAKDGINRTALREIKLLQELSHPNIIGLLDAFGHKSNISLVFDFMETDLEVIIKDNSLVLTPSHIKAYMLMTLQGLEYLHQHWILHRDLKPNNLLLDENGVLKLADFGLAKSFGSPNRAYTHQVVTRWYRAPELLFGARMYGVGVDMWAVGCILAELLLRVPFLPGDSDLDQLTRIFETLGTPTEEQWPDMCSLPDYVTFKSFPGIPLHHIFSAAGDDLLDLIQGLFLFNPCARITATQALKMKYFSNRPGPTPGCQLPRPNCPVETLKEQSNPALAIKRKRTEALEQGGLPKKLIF", "assay": "Inhibition of CDK7 (unknown origin)"}, "[22]": {"target": "SRSF protein kinase 1 (Homo sapiens) (UniProt Q96SB4)", "sequence (Q96SB4 whole entry)": "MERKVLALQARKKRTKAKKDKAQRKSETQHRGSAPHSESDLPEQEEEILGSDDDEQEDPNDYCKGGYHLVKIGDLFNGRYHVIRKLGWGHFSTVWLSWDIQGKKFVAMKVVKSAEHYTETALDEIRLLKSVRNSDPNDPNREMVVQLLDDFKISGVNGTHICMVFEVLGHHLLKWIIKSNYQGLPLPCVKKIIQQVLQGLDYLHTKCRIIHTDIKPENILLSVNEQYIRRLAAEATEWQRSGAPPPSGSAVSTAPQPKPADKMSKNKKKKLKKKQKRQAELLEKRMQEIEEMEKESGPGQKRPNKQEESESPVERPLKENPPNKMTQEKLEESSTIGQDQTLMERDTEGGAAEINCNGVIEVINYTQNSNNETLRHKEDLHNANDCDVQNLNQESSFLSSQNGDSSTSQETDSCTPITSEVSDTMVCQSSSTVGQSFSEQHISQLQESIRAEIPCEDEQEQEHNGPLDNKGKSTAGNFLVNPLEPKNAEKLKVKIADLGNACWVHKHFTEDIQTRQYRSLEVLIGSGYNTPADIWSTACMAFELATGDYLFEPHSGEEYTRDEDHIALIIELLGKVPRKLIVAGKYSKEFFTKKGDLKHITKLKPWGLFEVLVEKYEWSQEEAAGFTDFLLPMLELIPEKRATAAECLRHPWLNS", "assay": "Inhibition of human full length wild type SRPK1 expressed in mammalian system at 1 uM by KINOMEscan analysis relative to control"}, "[23]": {"target": "Dual specificity mitogen-activated protein kinase kinase 1 (Homo sapiens) (UniProt Q02750)", "assay": "Inhibition of human full length wild type MEK1 expressed in mammalian system at 1 uM by KINOMEscan analysis relative to control"}, "[24]": {"target": "ALK tyrosine kinase receptor (Homo sapiens) (UniProt Q9UM73)", "assay": "Inhibition of human partial length ALK (I1088/E1409) expressed in mammalian system at 1 uM by KINOMEscan analysis relative to control"}, "[25]": {"assay": "Half life in ICR mouse at 5 mg/kg, sc single dose measured upto 24 hrs", "assay_type": "ADME, organism-based", "conditions": "in vivo"}, "[26]": {"target": "Ribosomal protein S6 kinase beta-1 (Homo sapiens) (UniProt P23443)", "sequence (P23443 whole entry, looked up)": "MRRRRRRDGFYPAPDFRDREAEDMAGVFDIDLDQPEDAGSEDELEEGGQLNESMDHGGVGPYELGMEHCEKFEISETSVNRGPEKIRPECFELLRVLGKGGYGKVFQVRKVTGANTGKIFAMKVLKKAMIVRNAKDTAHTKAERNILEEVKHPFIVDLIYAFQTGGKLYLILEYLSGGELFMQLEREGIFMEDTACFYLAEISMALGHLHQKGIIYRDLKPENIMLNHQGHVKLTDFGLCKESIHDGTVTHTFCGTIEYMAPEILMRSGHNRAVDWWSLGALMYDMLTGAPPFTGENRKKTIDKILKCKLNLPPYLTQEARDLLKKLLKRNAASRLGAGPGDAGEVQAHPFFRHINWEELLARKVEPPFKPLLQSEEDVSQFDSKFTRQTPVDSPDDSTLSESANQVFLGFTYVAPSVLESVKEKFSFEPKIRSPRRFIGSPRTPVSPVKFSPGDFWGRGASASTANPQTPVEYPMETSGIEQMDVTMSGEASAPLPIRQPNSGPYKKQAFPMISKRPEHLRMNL", "assay": "Inhibition of human partial length wild type p70S6K (M1/S421) expressed in mammalian system at 1 uM by KINOMEscan analysis relative to control"}, "[27]": {"target": "PI3-kinase p110-delta/p85-alpha (Homo sapiens) (UniProt P27986+O00329)", "assay": "Inhibition of PI3 Kinase p110delta/p85alpha (unknown origin) at 1 uM relative to control", "assay_type": "protein-complex assay"}, "[28]": {"target": "Casein kinase I isoform gamma-1 (Homo sapiens) (UniProt Q9HCP0)", "sequence (Q9HCP0 whole entry, looked up, canonical isoform)": "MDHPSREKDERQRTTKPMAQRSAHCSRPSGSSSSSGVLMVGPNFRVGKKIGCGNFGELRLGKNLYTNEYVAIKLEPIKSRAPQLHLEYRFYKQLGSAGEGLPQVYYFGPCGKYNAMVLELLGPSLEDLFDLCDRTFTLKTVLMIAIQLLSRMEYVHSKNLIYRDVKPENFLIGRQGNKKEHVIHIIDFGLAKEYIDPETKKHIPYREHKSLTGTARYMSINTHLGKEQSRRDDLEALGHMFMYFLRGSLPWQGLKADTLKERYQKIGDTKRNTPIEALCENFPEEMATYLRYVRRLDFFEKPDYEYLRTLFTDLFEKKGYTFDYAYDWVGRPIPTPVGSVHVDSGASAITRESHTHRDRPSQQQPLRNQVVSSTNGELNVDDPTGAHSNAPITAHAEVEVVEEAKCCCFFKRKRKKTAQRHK", "assay": "Inhibition of human partial length wild type CKlgamma1 (T15/S353) expressed in bacterial system at 1 uM by KINOMEscan analysis relative to control"}, "[29]": {"target": "Tyrosine-protein kinase JAK2 (Homo sapiens) (UniProt O60674)", "assay": "Inhibition of human partial length wild type JAK2 (A829/G1132) expressed in mammalian system at 1 uM by KINOMEscan analysis relative to control"}, "Mus musculus [30]": {"tested_on": "Mus musculus", "assay": "Reduction in AMPD3 protein expression in kidney-specific Pkd1 knockout ADPKD mouse model assessed as protein expression in kidney at 5 mg/kg by Western blot analysis", "assay_type": "functional, organism-based"}, "[31]": {"target": "RAF proto-oncogene serine/threonine-protein kinase (Homo sapiens) (UniProt P04049)", "sequence (P04049 whole entry)": "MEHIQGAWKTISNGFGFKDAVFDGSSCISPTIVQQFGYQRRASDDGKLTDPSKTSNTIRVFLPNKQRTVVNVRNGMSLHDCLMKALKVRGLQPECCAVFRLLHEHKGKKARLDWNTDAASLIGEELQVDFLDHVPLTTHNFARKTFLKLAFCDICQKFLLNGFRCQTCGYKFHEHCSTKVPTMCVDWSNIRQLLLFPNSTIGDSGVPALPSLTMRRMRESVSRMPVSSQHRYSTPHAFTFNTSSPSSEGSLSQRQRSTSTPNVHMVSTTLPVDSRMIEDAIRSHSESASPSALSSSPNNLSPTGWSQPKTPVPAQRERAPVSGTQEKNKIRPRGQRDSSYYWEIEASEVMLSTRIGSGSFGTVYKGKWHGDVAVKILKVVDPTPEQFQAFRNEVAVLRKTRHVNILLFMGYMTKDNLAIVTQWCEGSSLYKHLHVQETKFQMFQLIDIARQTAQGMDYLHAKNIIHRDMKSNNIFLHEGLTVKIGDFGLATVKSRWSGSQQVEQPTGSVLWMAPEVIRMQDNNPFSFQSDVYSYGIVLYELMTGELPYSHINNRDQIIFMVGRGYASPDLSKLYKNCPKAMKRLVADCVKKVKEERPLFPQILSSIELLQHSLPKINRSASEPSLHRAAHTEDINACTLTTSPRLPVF", "assay": "Inhibition of human partial length wild type c-RAF (I330/T640) expressed in bacterial system at 1 uM by KINOMEscan analysis relative to control"}, "[32]": {"target": "Cyclin-dependent kinase 9 (Homo sapiens, UniProt P50750)", "sequence (P50750 whole entry)": "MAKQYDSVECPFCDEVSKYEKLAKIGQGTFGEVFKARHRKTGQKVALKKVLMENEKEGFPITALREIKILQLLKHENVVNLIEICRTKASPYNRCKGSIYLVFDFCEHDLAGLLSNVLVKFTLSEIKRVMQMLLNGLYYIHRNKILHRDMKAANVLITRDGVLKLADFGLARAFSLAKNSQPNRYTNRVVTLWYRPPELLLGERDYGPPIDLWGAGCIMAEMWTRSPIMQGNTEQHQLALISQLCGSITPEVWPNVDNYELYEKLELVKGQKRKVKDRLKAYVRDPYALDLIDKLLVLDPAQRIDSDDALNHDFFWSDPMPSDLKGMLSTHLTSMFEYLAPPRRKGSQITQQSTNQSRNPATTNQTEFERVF", "assay": "Inhibition of CDK9 (unknown origin)"}, "[33]": {"target": "RAC-alpha serine/threonine-protein kinase (Homo sapiens) (UniProt P31749)", "assay": "Inhibition of PKBalpha (unknown origin) at 1 uM relative to control"}, "[34]": {"target": "Ribosomal protein S6 kinase alpha-4 (Homo sapiens) (UniProt O75676)", "sequence (O75676 whole entry, looked up)": "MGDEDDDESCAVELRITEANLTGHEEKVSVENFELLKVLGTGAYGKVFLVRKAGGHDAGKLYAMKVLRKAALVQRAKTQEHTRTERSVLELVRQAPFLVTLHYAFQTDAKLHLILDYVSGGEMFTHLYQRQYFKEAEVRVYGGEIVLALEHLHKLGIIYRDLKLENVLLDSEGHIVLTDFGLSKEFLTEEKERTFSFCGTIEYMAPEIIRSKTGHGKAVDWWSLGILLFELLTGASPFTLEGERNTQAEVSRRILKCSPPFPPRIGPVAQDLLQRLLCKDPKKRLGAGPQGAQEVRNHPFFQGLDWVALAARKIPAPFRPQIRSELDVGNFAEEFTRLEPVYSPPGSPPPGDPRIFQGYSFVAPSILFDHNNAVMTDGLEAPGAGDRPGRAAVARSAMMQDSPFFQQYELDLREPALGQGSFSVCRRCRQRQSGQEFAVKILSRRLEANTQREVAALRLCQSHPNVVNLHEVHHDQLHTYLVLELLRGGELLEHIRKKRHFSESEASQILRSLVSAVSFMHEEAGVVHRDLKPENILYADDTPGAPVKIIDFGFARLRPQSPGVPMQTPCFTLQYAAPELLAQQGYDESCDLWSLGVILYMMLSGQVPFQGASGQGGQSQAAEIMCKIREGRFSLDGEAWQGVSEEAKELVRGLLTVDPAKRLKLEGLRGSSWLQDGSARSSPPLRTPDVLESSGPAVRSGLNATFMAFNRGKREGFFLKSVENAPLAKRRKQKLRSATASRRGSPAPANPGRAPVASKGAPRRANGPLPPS", "assay": "Inhibition of human partial length wild type MSK2 expressed in bacterial system at 1 uM by KINOMEscan analysis relative to control"}, "[35]": {"target": "Serine/threonine-protein kinase Nek2 (Homo sapiens) (UniProt P51955)", "assay": "Inhibition of human partial length wild type NEK2 expressed in bacterial system at 1 uM by KINOMEscan analysis relative to control"}, "Mus musculus [36]": {"tested_on": "Mus musculus", "assay": "Reduction in cyst formation in kidney-specific Pkd1 knockout ADPKD mouse model assessed as renal cystic index at 5 mg/kg by HE staining analysis", "assay_type": "functional, organism-based"}, "[37]": {"target": "Cyclin-dependent kinase 3 (Homo sapiens, UniProt Q00526)", "assay": "Inhibition of CDK3 (unknown origin)"}},
  "note": "The source made the active and inactive calls. No cut-off for these calls is given here.",
  "data": [
    {"compound": "C=CC(=O)Nc1ccc(C(=O)Nc2n[nH]c3ccc(-c4cncc(NC[C@@H](O)c5ccccc5)c4)cc23)cc1", "values": [
      {"measurement": "Activity", "setting": "[1]", "value": "Non-Toxic"},
      {"measurement": "Activity", "setting": "Mus musculus [2]", "value": "Active"},
      {"measurement": "inhibition", "setting": "[3]", "value": "< 50", "unit": "%"},
      {"measurement": "inhibition", "setting": "Homo sapiens [4]", "value": "< 50", "unit": "%"},
      {"measurement": "inhibition", "setting": "[5]", "value": "< 50", "unit": "%"},
      {"measurement": "inhibition", "setting": "[6]", "value": "< 50", "unit": "%"},
      {"measurement": "inhibition", "setting": "[7]", "value": "< 50", "unit": "%"},
      {"measurement": "Activity", "setting": "[8]", "value": "Non-Toxic"},
      {"measurement": "inhibition", "setting": "[9]", "value": 76, "unit": "%"},
      {"measurement": "inhibition", "setting": "[10]", "value": "< 50", "unit": "%"},
      {"measurement": "fraction unbound at 4 h", "setting": "[11]", "value": "< 0.01"},
      {"measurement": "Activity", "setting": "Mus musculus [12]", "value": "Active"},
      {"measurement": "AUC(0-inf)", "setting": "[13]", "value": 17400, "unit": "ng·h/mL"},
      {"measurement": "inhibition", "setting": "[14]", "value": "< 50", "unit": "%"},
      {"measurement": "inhibition", "setting": "[15]", "value": "< 50", "unit": "%"},
      {"measurement": "IC50", "setting": "[16]", "value": "> 10000", "unit": "nM"},
      {"measurement": "inhibition", "setting": "Homo sapiens [17]", "value": "< 50", "unit": "%"},
      {"measurement": "inhibition", "setting": "[18]", "value": "< 50", "unit": "%"},
      {"measurement": "Cmax", "setting": "[19]", "value": 3810, "unit": "ng/mL"},
      {"measurement": "IC50", "setting": "[20]", "value": 950, "unit": "nM"},
      {"measurement": "IC50", "setting": "[21]", "value": 4, "unit": "nM"},
      {"measurement": "inhibition", "setting": "[22]", "value": "< 50", "unit": "%"},
      {"measurement": "inhibition", "setting": "[23]", "value": "< 50", "unit": "%"},
      {"measurement": "inhibition", "setting": "[24]", "value": "< 50", "unit": "%"},
      {"measurement": "half-life", "setting": "[25]", "value": 3, "unit": "h"},
      {"measurement": "inhibition", "setting": "[26]", "value": "< 50", "unit": "%"},
      {"measurement": "inhibition", "setting": "[27]", "value": "< 50", "unit": "%"},
      {"measurement": "inhibition", "setting": "[28]", "value": "< 50", "unit": "%"},
      {"measurement": "inhibition", "setting": "[29]", "value": 62, "unit": "%"},
      {"measurement": "inhibition", "setting": "Mus musculus [30]", "value": "Active"},
      {"measurement": "inhibition", "setting": "[31]", "value": "< 50", "unit": "%"},
      {"measurement": "IC50", "setting": "[32]", "value": 526, "unit": "nM"},
      {"measurement": "inhibition", "setting": "[33]", "value": "< 50", "unit": "%"},
      {"measurement": "inhibition", "setting": "[34]", "value": "< 50", "unit": "%"},
      {"measurement": "inhibition", "setting": "[35]", "value": "< 50", "unit": "%"},
      {"measurement": "Activity", "setting": "Mus musculus [36]", "value": "Active"},
      {"measurement": "IC50", "setting": "[37]", "value": 1840, "unit": "nM"}
    ]}
  ]
}
